One assay addresses CRBN (Homo sapiens, UniProt Q96SW2). The assay is described as follows: Thermal displacement experiment (CRBN thermal stability, Western blot). Type of assay: binding. Details: endogenous in cells. As to conditions: 100 μM, 293T cell lysates, 56° C. and 59° C. As for the experimental part:
The experiment utilizes the principle that the binding of small molecular compounds to proteins can improve the thermal stability of proteins. 3×10^7 cells were collected and washed twice with phosphate buffered saline (PBS). 100×protease inhibitor cocktail (APEXBIO, K1007) was added to pre-cooled PBS to suspend the cells, and 500 μL of cell suspension was aliquoted into each 1.5 EP tube. The EP tube was placed in liquid nitrogen for quick freezing for 5 min and then transferred to a 26° C. water bath quickly; thereafter, the EP tube was transferred to a 4° C. environment when the liquid is half thawed, until it is completely thawed. This freeze-thaw procedure was performed thrice to allow complete protein precipitation from the cells. The frozen-thawed product was centrifuged at 4° C. for 20 min, the supernatant was aspirated and mixed, and then aliquoted into 1.5 mL EP tubes, and DMSO and WX106 were added respectively to adjust the concentration of WX106 in the solution to 100 μM. […] After the heat shock at all temperatures, the DMSO- and WX106-treated samples at each temperature were collected respectively, centrifuged at 4° C. for 20 min, and the concentration of BCA protein (Thermo) was quantified; at the same time, Western blot was performed to detect the changes of CRBN (Anti-CRBN antibody, Sigma Company, HPA045910) protein content. […]
On the technique in general: In western blotting, separated proteins are transferred to a membrane and probed.

The next assay deals with MM.1S cells. Briefly: Sensitivity of MM.1S versus low-CRBN-expression MM.1S-p5000 cells to WX106 (CCK-8). Type of assay: cell-based. As to conditions: 10 μM, 72 h, MM.1S-p5000 versus MM.1S. As for the experimental part: WX106 (10 μM) was added to MM.1S cells and MM.1S-p5000 (Poma-resistant low-CRBN-expression cell line) cells, respectively, and cell proliferation was detected by CCK-8 after 72 h.

Another assay deals with Hep3B and SNU182 cells. Briefly: Growth curves of stable CRBN knockout cell lines (pool). Conditions: 10 μM. Type of assay: cell-based. The procedure:
The sgRNA sequence targeting CRBN was inserted into lenti Crispr V2 plasmid, the virus was co-packaged with the packaging vectors psPAX2 and pVSVG, and the cells were infected; screening was performed with puromycin (Invitrogen, A1113803) and the knockout of CRBN was identified by Western blot; finally, the cell growth was detected to calculate the survival rate.
Stable CRBN knockout cell lines (pool) were established in Hep3B and SNU182 cells, respectively, and treated with WX106 (10 μM) or solvent; the growth of cells was detected at different time points and the growth curves were drawn.

The test system of another assay is tumor cell lines. Briefly: Cell experiment: CCK-8 growth inhibition of tumor cell lines. Format: cell-based. Conditions: 72 hours, hematological tumor cells and some liver cancer cells, read-out: growth inhibitory effect (inhibition rate). As for the experimental part:
Different cells were seeded in 96-well plates (the density of adherent cells was 1,000/well and the density of suspension cells was 10,000/well), 10 μM of WX106 was added for 72 hours of action, and CCK-8 reagent (Meilun Biotechnology, MA0218-L) was added for 2 hours of reaction thereafter; and the plate was then read with a microplate reader (SpectraMax i3) and the inhibition rate was calculated. Inhibition rate=[(Ac−As)/(Ac−Ab)]×100% (where As represents the absorbance of experimental wells, Ac represents the absorbance of control wells, and Ab represents the absorbance of blank wells).
Eighteen tumor cell lines were treated with 10 μM of WX106 for 72 hours, and the rate of inhibition of cell growth by WX106 was calculated.

Assay [1] relates to colorectal cancer cells and brain tumor cell lines. Briefly: Clone formation experiment. Format: cell-based. Conditions: 10 μM; some colorectal cancer cells and brain tumor cell lines. The procedure: The effect of the compound on the monoclone-formation capacity of cells was examined. Cells were seeded in 6-well plates at low density (about 500 cells per well), 10 μM of WX106 was added for treatment, crystal violet staining (Beyotime Biotechnology, C0121) was performed when the cells grew into clones visible to the naked eye, and the number of clones was counted. All treatments were performed in at least three replicates.

The target in the next assay is Wee1 (Homo sapiens, UniProt P30291). Briefly: Label-free quantitative mass spectrometry for proteomic analysis. As to conditions: MOLT-4, 10 μM WX106 (10 μM MG132 where added), 6 hours, replicates. On the set-up: endogenous in cells; host or cells: MOLT-4. Format: cell-based. As for the experimental part: There are three treatment methods for the selected MOLT-4 cells; one is to directly add DMSO as a control, the other is to add 10 μM WX106, and the third is to add 10 μM WX106 and 10 μM MG132 (proteasome inhibitor; APEXBIO, A2585 and MG132 are capable of blocking ubiquitin-mediated protein degradation). Two replicates were prepared for the 10 μM WX106 plus 10 μM MG132 group, and three replicates were prepared for the DMSO control group and 10 μM WX106 administration group, respectively. The drug treatment time for MOLT-4 was 6 hours. Mass spectrometry samples were prepared based on the basic steps of urea cleavage, reductive alkylation, desalting, and lyophilization. The prepared samples were subjected to two-hour gradient analysis on a Q Exactive HF mass spectrometer, followed by data analysis.
Wee1, sequence (P30291 whole entry): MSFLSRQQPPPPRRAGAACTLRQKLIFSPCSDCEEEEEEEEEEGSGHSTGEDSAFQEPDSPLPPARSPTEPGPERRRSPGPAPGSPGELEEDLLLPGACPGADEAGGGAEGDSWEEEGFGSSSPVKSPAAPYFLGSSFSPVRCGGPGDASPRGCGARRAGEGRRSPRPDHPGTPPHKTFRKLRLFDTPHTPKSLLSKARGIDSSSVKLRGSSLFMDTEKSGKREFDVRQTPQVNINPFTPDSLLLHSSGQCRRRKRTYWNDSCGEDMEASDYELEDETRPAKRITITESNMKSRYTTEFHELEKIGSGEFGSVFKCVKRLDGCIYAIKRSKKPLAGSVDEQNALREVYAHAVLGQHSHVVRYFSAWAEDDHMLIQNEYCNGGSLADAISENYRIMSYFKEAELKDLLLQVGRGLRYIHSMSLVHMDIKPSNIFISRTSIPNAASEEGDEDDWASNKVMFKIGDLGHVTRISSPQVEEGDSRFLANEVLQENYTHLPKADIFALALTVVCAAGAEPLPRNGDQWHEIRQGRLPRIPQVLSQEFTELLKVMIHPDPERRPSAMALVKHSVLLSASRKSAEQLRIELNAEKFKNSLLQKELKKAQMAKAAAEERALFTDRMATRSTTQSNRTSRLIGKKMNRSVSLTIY

CRBN, sequence (Q96SW2 whole entry): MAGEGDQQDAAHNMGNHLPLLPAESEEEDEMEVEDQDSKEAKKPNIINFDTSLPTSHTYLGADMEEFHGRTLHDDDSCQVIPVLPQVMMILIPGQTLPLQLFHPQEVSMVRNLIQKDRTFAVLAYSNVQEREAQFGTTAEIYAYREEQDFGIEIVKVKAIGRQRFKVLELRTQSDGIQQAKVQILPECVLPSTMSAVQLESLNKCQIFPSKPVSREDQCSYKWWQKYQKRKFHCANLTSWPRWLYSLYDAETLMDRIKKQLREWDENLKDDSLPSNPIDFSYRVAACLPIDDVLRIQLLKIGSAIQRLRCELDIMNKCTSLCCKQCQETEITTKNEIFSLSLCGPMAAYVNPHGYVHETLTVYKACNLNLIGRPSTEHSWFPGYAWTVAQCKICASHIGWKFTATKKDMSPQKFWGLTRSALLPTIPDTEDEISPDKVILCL

As to `Cc1ccc(C(=O)Nc2ccc3occ(C4CCC(=O)NC4=O)c3c2)cc1Cl` (stereo not shown) [WX106], the “CRBN protein abundance after heat shock” value at CRBN was “significantly increased”. Also, the “sensitivity of cells to WX106 with low CRBN expression” value in the assay on MM.1S cells is on record as “significantly less sensitive”. Moreover, the “sensitivity of cells with normal CRBN expression (growth curve)” value with Hep3B and SNU182 cells (Hep3B and SNU182) was “very sensitive”. Moreover, in the assay on Hep3B and SNU182 cells (Hep3B and SNU182 CRBN knockout pools), the “growth rate of low-CRBN-expression cells compared with the solvent group” value is “no significant difference”. In the assay on tumor cell lines, the inhibition – broadly, the drop in the measured response relative to a control, in per cent – at 10 µM was above 50%. Moreover, the clone formation result in assay [1] is reported as “inhibits clone formation”. On Wee1, the “Wee1 LFQ intensity” value was 0.

These data come from patent publication US12466816B2, “Fused cyclic compound capable of degrading protein and use thereof” (Medshine Discovery Inc., priority 2019, dated 2025).
